Data set [1] concerns L. infantum amastigote forms. The experiment in a line: In vitro activity against intracellular (amastigote) forms in macrophages. The conditions noted are these: for Selectivity Index (SI) L. infantum Amastigote forms: IC50 of macrophages / IC50 of parasite form; for IC50: Leishmania infantum, Macrophage, 72 h. The format is cell-based, Leishmania infantum. An excerpt: Methodology: Cultures of three Leishmania species, representative of the species causing each of the clinical forms of the disease, were used for these studies. Specifically, strains MCAN/ES/2001/UCM-1 O of L.infantum, isolated and characterised in Madrid from an infected dog; MHOM/BR/1975/M2904 of L.braziliensis, isolated in Brazil in a human case, and LCR-L 133 LRC of L.donovani. isolated in Jerusalem, Israel from a case of kala-azar […] (WHO Technical Reports Series 949. Geneva: WHO. March. The cultures of parasites come from an own collection which was prepared from a biobank project (Biobank and Characterisation Unit of Strains and Species of Trypanosomatids, Responsible for Human, Animal and Plant Pathologies, Cgl-2008-03687-E/Bos.), and are available on request.
For the study of the in vitro effect on intracellular forms of Leishmania, the experimental model designed by the group of the present inventors was used [Sánchez-Moreno. M. et al. Med. Chem. 2012, 55, 9900-9913; Sánchez-Moreno. M. et al. J. Antimicrob. Chemother. 2012, 67, 387-397]. The macrophages were detached from the culture flask where they were attached by dry blows. To do this, it was incubated in cold for 5 minutes and after that the flask was hit with the palm of the hand until the cells were detached from the flask. Then, they were passed to a 25 ml capacity steriling conical bottom flask (Deltalab) to centrifuge them at 120 g for 5 minutes, removing the supernatant and were counted in Neubauer’s chamber. Cells were suspended in RPMI medium at a concentration of 1×10^4 cells/well, then cultured in 24-well plates into which a 12 mm round slide had previously been placed into each well. For adherence, the cells were left 24 h at 37° C. in 5% CO2. Subsequently, the cells were infected in vitro by placing Leishmania cells at the rate of 10 parasites/macrophage according to [Sánchez-Moreno. M et al. Med. Chem. 2011, 54, 970-979]. […] The products were allowed to act for 72 hours of incubation.
After that time, the crystals were removed and fixed with methanol on a slide and allowed to dry, after which DPX microscopy mounting medium (Panreac®) was added to it. Once the preparations had been mounted, they were dyed with Giemsa by diluting Azur-Eosin-Methylene Blue solution according to Giemsa DC (Code 251338) with Sorensen buffer (1:10 dilution). The preparations were covered and allowed to colour for 20 minutes, after which they were washed with distilled water and then allowed to drain and dry vertically. Finally, the amastigote forms were counted with the aim of immersion in a total of 200 cells.

Data set [2] deals with J774.2 macrophages. The data set is described as follows: Macrophage toxicity by flow cytometry. The class given is cell-based. Particulars: for IC50: J774.2 macrophages, 72 h of culture. The protocol:
Macrophage toxicity: this study used the experimental model designed by the group of inventors [I. Ramírez-Macías. et. al. J. Antimicrob. Chemother. 2011, 66(4): 813-819] wherein flow cytometry is used. Briefly, macrophages from line J774.2 (ECACC number 91051511, obtained from a BALB/c female […] tumour in 1968) were deposited in a steriling tube and centrifuged at 120 g for 5 minutes. The supernatant was discarded and the cells were resuspended in MEM + Glutamine medium with 20% SBF (fetal bovine serum). 1×10^4 cells per well were then deposited from a 24-well titration plate and incubated for 24-48 h at 37° C. in a humid atmosphere enriched with 5% CO2 to fix them. […] After 72 h of incubation, the samples were prepared for reading on a flow cytometer. Specifically, 100 µl of propidium iodide solution (100 µg/ml) was added to each well and incubated for 10 min at 28° C. in the dark. Subsequently, 100 µl/well of fluorescein diacetate (FDA) (Sigma Chemical Co) in solution (100 ng/mL) was added and incubation was repeated under the same conditions for 10 minutes. Cells were recovered by centrifugation at 400 g for 10 minutes and washing the precipitate with PBS. Finally, the results were analysed in a FACS Vantage flow cytometer (Becton Dickinson) taking into account that the cells with the plasma membrane intact emit green colour as the esterases act on the FDA, while the cells that have lost the integrity of the membrane and are not viable, emit in the range close to 580 nm by penetrating the propidium iodide by passive diffusion and specifically binding to the nucleic acids thereof. Thus, to calculate the percentage of viability, the number of dead cells compared to controls was taken into account.
For orientation: A flow cytometer gives signals particle by particle.

For data set [3], the system named is FeSOD of promastigote forms of L.infantum. The data set is described as follows: In vitro inhibition of FeSOD (NBT reduction). The class given is biochemical, Leishmania infantum. The protocol: Methodology: Compounds that were selected from the leishmanicidal activity shown in previous experiments were evaluated as inhibitors of FeSOD enzyme activity, which is unique to the kinetoplastid parasites to which Leishmania belongs. Being exclusive, it is absent in the vertebrate host, since these usually have an analogous form of that enzyme, but complexed to a copper or zinc atom (Cu/ZnSOD). For this reason, this enzyme is a therapeutic target for the design of new drugs, since the capture of the metal ion by complexing mechanisms can inactivate the enzyme and compromise the survival of the parasite with the appearance of free radicals.
Inhibition caused by the novel compounds on FeSOD/ Cu-Zn SOD activity was quantified on the spectrophotometer at 560 nm according to the technique described by [W F. Beyer. I. Fridovich. Anal Biochem. 1987. 161: 559-66] based on the determination of the reduction of NBT (nitro blue tetrazolium) by superoxide ions and which the group of the present inventors has developed for the assay in trypanosomatides, being a routine technique in the laboratory of said group [F. Luque. et. al. Comp. Biochem. Physiol. C Toxicol. Pharmacol. 2000. 126: 39-44; M. Sanchez-Moreno. Med. Chem. 2011. 54. 970-9; I. Ramírez-Macías. et. al. J. Antimicrob. Chemother 2011. 66(4): […]].
Briefly, the cultured parasites as described in Example 1 underwent centrifugation, the pellet was resuspended (0.5 - 0.6 g/ml) in 3 ml of STE buffer ([…]. pH 7.8) and underwent 3 cycles of sonication from 30 s at 60 V. Then, it was centrifuged at 1500 g for 10 min at 4° C. and the pellet was washed 3 times with ice-cooled STE buffer. This fraction was centrifuged (2500 g for 10 min at 4° C.) and the supernatant was subsequently collected. Protein concentrations were determined by means of the Bradford method (Sigma-Aldrich) using bovine serum albumin as standard. […] A first measurement of the absorbance at 560 nm was made on a spectrophotometer and, after 10 minutes under light and under stirring conditions, the absorbance was re-determined. […]

Entries after “also recorded” stand apart in the source; their conditions may differ.

What is called IC50 is the midpoint of a concentration-inhibition curve. As to `CNCCNCc1ccccn1` [Compound 1, 1-{2-pyridyl}-2,5-diazahexane], in data set [1], the “Selectivity Index (SI) L. infantum Amastigote forms” value (“Selectivity Index” for short) worked out at 20 and the IC50 is 0.7 ± 0.1 µM. Half-maximal inhibition in data set [2] (IC50) required 13.7 ± 3.1 µM.
As to `CNCCNCc1cccnc1` [Compound 2, 1-{3-pyridyl)-2,5-diazahexane], half-maximal inhibition in data set [1] (IC50) was put at 8.4 ± 0.5 µM. Also, in data set [2], the “Toxicity in macrophages (IC50) compared with the reference compound” value is “low toxicities” and the IC50 stood at 310 ± 11.5 µM. In addition, the “Concentration for 50% inhibition (IC50) of FeSOD of L.infantum” value (from here on “Concentration for 50% inhibition (IC50)”) in data set [3] is “less than that necessary to achieve the same percentage of inhibition of the CuZnSOD enzyme of human erythrocytes; also recorded: showed ability to inhibit FeSOD; also recorded: low IC50 value”.
With `CNCCNCc1ccncc1` [Compound 3, 1-{4-pyridyl)-2,5-diazahexane], in data set [1], the “Selectivity Index” value is 16 and it took 13.9 ± 1 µM to reach half-maximal inhibition (IC50). In data set [2], this molecule registered an IC50 of 223 ± 17.3 µM.
On to `CN(C)CCNCc1ccccn1` [Compound 4, 1-(2-pyridyl)-5-methyl-2,5-diazahexane], for which, in data set [1], the “Selectivity Index” value stood at 37 and half-maximal inhibition (IC50) required 33.6 ± 1.4 µM. This molecule also yielded an IC50 in data set [2] of 1240 ± 42.7 µM. Further, the “Concentration for 50% inhibition (IC50)” value in data set [3] is “less than that necessary to achieve the same percentage of inhibition of the CuZnSOD enzyme of human erythrocytes; also recorded: showed ability to inhibit FeSOD”.
Regarding `CN(C)CCNCc1cccnc1` [Compound 5, 1-{3-pyridyl}-5-methyl-2,5-diazahexane], the IC50 came to 10 ± 0.8 µM in data set [1] and 230 ± 16.9 µM in data set [2]. Also, in data set [2], the “Toxicity in macrophages (IC50) compared with the reference compound” value is “much lower”. In addition, in data set [3], the “Concentration for 50% inhibition (IC50)” value is on record as “less than that necessary to achieve the same percentage of inhibition of the CuZnSOD enzyme of human erythrocytes; also recorded: showed ability to inhibit FeSOD”.
Consider `CN(C)CCNCc1ccncc1` [Compound 6], for which, in data set [1], the “Selectivity Index” value worked out at 21 and the IC50 amounted to 23.6 ± 1.7 µM. Besides, the half-maximal inhibitory concentration (IC50) in data set [2] was determined as 497 ± 21.5 µM.
For `CN(C)CCNCc1ccc2ccccc2n1` [Compound 7], in data set [1], the “Selectivity Index” value was 9 and the IC50 stood at 49.7 ± 3.6 µM. In addition, half-maximal inhibition in data set [2] (IC50) was put at 442 ± 31.6 µM.
For `CN(C)CCNCc1ccnc2ccccc12` [Compound 8, 1-{4-quinolyl)-5-methyl-2,5-diazahexane], in that order: 2, 11.5 ± 0.8 µM and 22.5 ± 0.6 µM.
With `CNCCNCc1ccc2ccccc2n1` [Compound 9, 1-{2-quinolyl)-2,5-diazahexane], the “Selectivity Index” value in data set [1] came to 25. Also, the half-inhibitory concentration (IC50) in data set [1] was found to be 14.3 ± 0.6 µM; in data set [2] it was 354 ± 31.7 µM.
With `CNCCNCc1ccnc2ccccc12` [Compound 10], in data set [1], the “Selectivity Index” value was 9 and the IC50 is 18.7 ± 1.5 µM. In data set [2], this molecule gave an IC50 of 164 ± 10 µM.

Source of the values: patent US20230346769A1, “USE OF SIMPLE ACYCLIC POLYAMINES FOR THE TREATMENT OF DISEASES CAUSED BY PARASITES OF THE GENUS LEISHMANIA” (Universidad De Granada, priority 2020, published 2023).
